Columns and labels:
Solubility determination = settings: for Sol6: pH 6; for Sol7: pH 7
Summary of the method: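 Shake-flask style: 10 mg/ml peptide (TFA salt), 0.1 M sodium diphosphate pH 6.4/7.0, 600 rpm, 2 h, RT; filter; dilute 1 mg/ml in 50% MeCN; RP-UPLC, 0–100% B over 2 min, 50 °C. Solubility = sample/control area ratio. Final pH recorded.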

[1] = target: T1, Human Neuropeptide Y2 Receptor (Homo sapiens, UniProt P49146); assay: Radioligand binding competition assay (RLB); settings: Table 3, 125I-PYY(1-36) competition; read-out: Ki
T1 construct: purchased CHEMICON HTS066M
T1 sequence (P49146 1-381): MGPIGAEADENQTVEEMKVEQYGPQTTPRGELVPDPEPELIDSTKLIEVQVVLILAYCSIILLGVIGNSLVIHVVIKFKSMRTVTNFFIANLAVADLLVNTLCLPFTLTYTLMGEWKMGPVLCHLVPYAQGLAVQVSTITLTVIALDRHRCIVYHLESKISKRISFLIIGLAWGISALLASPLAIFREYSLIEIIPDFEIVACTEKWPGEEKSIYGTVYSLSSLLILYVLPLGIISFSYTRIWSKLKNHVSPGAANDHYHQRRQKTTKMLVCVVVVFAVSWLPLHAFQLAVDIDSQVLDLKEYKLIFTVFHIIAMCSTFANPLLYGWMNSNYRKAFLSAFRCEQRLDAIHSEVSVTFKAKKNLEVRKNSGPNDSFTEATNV
Summary of the method: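 Peptides were serially diluted from 1 mM DMSO stocks and competed for radioligand binding to receptor membranes (0.5 μg/well) over 2 h at room temperature, pH 7.4 HEPES buffer. Bound radioactivity on filters was counted by scintillation, and IC50 was derived by nonlinear regression.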

Compound	Sol6 (Solubility determination)	Sol7 (Solubility determination)	Ki [1]
CC(C)CC(=O)N[C@@H](C)C(=O)N1CCC[C@H]1C(=O)N[C@@H](C)C(=O)N[C@@H](CCCCNC(=O)CCCCCNC(=O)CC[C@H](NC(=O)CCCCCCCCCCCCCCCCC(=O)O)C(=O)O)C(=O)N1CCC[C@H]1C(=O)N[C@@H](CCC(=O)O)C(=O)N[C@@H](CCC(=O)O)C(=O)N[C@@H](CC(=O)O)C(=O)N[C@@H](C)C(=O)N[C@@H](CO)C(=O)N1CCC[C@H]1C(=O)N[C@@H](CCC(=O)O)C(=O)N[C@@H](CCC(=O)O)C(=O)N[C@@H](CC(C)C)C(=O)N[C@@H](CCC(N)=O)C(=O)N[C@@H](CCCNC(=N)N)C(=O)N[C@@H](Cc1ccc(O)cc1)C(=O)N[C@@H](Cc1ccc(O)cc1)C(=O)N[C@H](C(=O)N[C@@H](CCC(=O)O)C(=O)N[C@@H](CC(C)C)C(=O)N[C@@H](CCCNC(=N)N)C(=O)N[C@@H](Cc1c[nH]cn1)C(=O)N[C@@H](Cc1ccc(O)cc1)C(=O)N[C@@H](Cc1ccc(O)cc1)C(=O)N[C@@H](CC(N)=O)C(=O)N[C@@H](Cc1c[nH]c2ccccc12)C(=O)N[C@@H](CC(C)C)C(=O)N[C@H](C(=O)N[C@@H](CCCNC(=N)N)C(=O)N[C@@H](CCC(N)=O)C(=O)N[C@@H](CCCNC(=N)N)C(=O)N[C@@H](Cc1ccc(O)cc1)C(N)=O)[C@@H](C)O)C(C)C [Compound 166, N{alpha-4}-(3-methylbutanoyl)-N{epsilon-7}-(6-[(4S)-4-carboxy-4-(17-carboxyheptadecanamido)butanamido]hexanoyl)-[4A,6A,7K,9E,18Q,22V,23E,28Y,30W,31L]-hPYY(4-36)]	9.2 mg/mL	9.7 mg/mL	2.05 nM
CC[C@H](C)[C@H](NC(=O)[C@H](CCC(=O)O)NC(=O)[C@H](CCC(=O)O)NC(=O)[C@@H]1CCCN1C(=O)[C@H](CCC(=O)O)NC(=O)[C@H](C)NC(=O)[C@H](C)NC(=O)[C@H](CCC(=O)O)NC(=O)[C@H](CCC(=O)O)NC(=O)[C@@H]1CCCN1C(=O)[C@H](CCCCNC(=O)CCCCCNC(=O)CC[C@H](NC(=O)CCCCCCCCCCCCCCCCC(=O)O)C(=O)O)NC(=O)[C@H](C)NC(=O)[C@@H]1CCCN1C(=O)[C@H](C)NC(=O)CC(C)C)C(=O)N[C@@H](CCC(N)=O)C(=O)N[C@@H](CCCNC(=N)N)C(=O)N[C@@H](Cc1ccc(O)cc1)C(=O)N[C@@H](Cc1ccc(O)cc1)C(=O)N[C@H](C(=O)N[C@@H](C)C(=O)N[C@@H](CC(C)C)C(=O)N[C@@H](CCCNC(=N)N)C(=O)N[C@@H](Cc1c[nH]cn1)C(=O)N[C@@H](Cc1ccc(O)cc1)C(=O)N[C@@H](Cc1ccc(O)cc1)C(=O)N[C@@H](CC(N)=O)C(=O)N[C@@H](Cc1c[nH]c2ccccc12)C(=O)N[C@@H](CC(C)C)C(=O)N[C@H](C(=O)N[C@@H](CCCNC(=N)N)C(=O)N[C@@H](CCC(N)=O)C(=O)N[C@@H](CCCNC(=N)N)C(=O)N[C@@H](Cc1ccc(O)cc1)C(N)=O)[C@@H](C)O)C(C)C [Compound 167, N{alpha-4}-(3-methylbutanoyl)-N{epsilon-7}-(6-[(4S)-4-carboxy-4-(17-carboxyheptadecanamido)butanamido]hexanoyl)-[4A,6A,7K,9E,11A,13E,17I,18Q,22V,23A,28Y,30W,31L]-hPYY(4-36)]	0.0 mg/mL	9.5 mg/mL	4.58 nM
CC(C)CC(=O)N[C@@H](C)C(=O)N1CCC[C@H]1C(=O)N[C@@H](CCC(=O)O)C(=O)N[C@@H](CCCCNC(=O)CCCCCNC(=O)CC[C@H](NC(=O)CCCCCCCCCCCCCCCCC(=O)O)C(=O)O)C(=O)N1CCC[C@H]1C(=O)N[C@@H](CCC(=O)O)C(=O)N[C@@H](CCC(=O)O)C(=O)N[C@@H](CC(=O)O)C(=O)N[C@@H](C)C(=O)N[C@@H](CCC(=O)O)C(=O)N1CCC[C@H]1C(=O)N[C@@H](CCC(=O)O)C(=O)N[C@@H](CCC(=O)O)C(=O)N[C@@H](CC(C)C)C(=O)N[C@@H](CCC(N)=O)C(=O)N[C@@H](C)C(=O)N[C@@H](Cc1ccc(O)cc1)C(=O)N[C@@H](Cc1ccc(O)cc1)C(=O)N[C@H](C(=O)N[C@@H](CO)C(=O)N[C@@H](CC(C)C)C(=O)N[C@@H](CCCNC(=N)N)C(=O)N[C@@H](Cc1c[nH]cn1)C(=O)N[C@@H](Cc1ccc(O)cc1)C(=O)N[C@@H](Cc1ccc(O)cc1)C(=O)N[C@@H](CC(N)=O)C(=O)N[C@@H](Cc1c[nH]c2ccccc12)C(=O)N[C@@H](CC(C)C)C(=O)N[C@H](C(=O)N[C@@H](CCCNC(=N)N)C(=O)N[C@@H](CCC(N)=O)C(=O)N[C@@H](CCCNC(=N)N)C(=O)N[C@@H](Cc1ccc(O)cc1)C(N)=O)[C@@H](C)O)C(C)C [Compound 169, N{alpha-4}-(3-methylbutanoyl)-N{epsilon-7}-(6-[(4S)-4-carboxy-4-(17-carboxyheptadecanamido)butanamido]hexanoyl)-[4A,7K,9E,13E,18Q,19A,22V,28Y,30W,31L]-hPYY(4-36)]	9.7 mg/mL	9.8 mg/mL	5.82 nM
CC[C@H](C)[C@H](NC(=O)[C@H](CCC(=O)O)NC(=O)[C@H](CCC(=O)O)NC(=O)[C@@H]1CCCN1C(=O)[C@H](C)NC(=O)[C@H](C)NC(=O)[C@H](CC(=O)O)NC(=O)[C@H](CCC(=O)O)NC(=O)[C@H](CCC(=O)O)NC(=O)[C@@H]1CCCN1C(=O)[C@H](CCCCNC(=O)CCCCCNC(=O)CC[C@H](NC(=O)CCCCCCCCCCCCCCCCC(=O)O)C(=O)O)NC(=O)[C@H](CCC(=O)O)NC(=O)[C@@H]1CCCN1C(=O)[C@H](C)NC(=O)CC(C)C)C(=O)N[C@@H](CCC(N)=O)C(=O)N[C@@H](CCCNC(=N)N)C(=O)N[C@@H](Cc1ccc(O)cc1)C(=O)N[C@@H](Cc1ccc(O)cc1)C(=O)N[C@H](C(=O)N[C@@H](CO)C(=O)N[C@@H](CC(C)C)C(=O)N[C@@H](CCCNC(=N)N)C(=O)N[C@@H](Cc1c[nH]cn1)C(=O)N[C@@H](Cc1ccc(O)cc1)C(=O)N[C@@H](Cc1ccc(O)cc1)C(=O)N[C@@H](CC(N)=O)C(=O)N[C@@H](Cc1c[nH]c2ccccc12)C(=O)N[C@@H](CC(C)C)C(=O)N[C@H](C(=O)N[C@@H](CCCNC(=N)N)C(=O)N[C@@H](CCC(N)=O)C(=O)N[C@@H](CCCNC(=N)N)C(=O)N[C@@H](Cc1ccc(O)cc1)C(N)=O)[C@@H](C)O)C(C)C [Compound 170, N{alpha-4}-(3-methylbutanoyl)-N{epsilon-7}-(6-[(4S)-4-carboxy-4-(17-carboxyheptadecanamido)butanamido]hexanoyl)-[4A,7K,9E,13A,17I,18Q,22V,28Y,30W,31L]-hPYY(4-36)]	>10.0 mg/mL	10.0 mg/mL	2.28 nM
CC(C)CC(=O)N[C@@H](C)C(=O)N1CCC[C@H]1C(=O)N[C@@H](CCC(=O)O)C(=O)N[C@@H](CCCCNC(=O)CCCCCNC(=O)CC[C@H](NC(=O)CCCCCCCCCCCCCCCCC(=O)O)C(=O)O)C(=O)N1CCC[C@H]1C(=O)N[C@@H](CCC(=O)O)C(=O)N[C@@H](C)C(=O)N[C@@H](CC(=O)O)C(=O)N[C@@H](C)C(=O)N[C@@H](CO)C(=O)N1CCC[C@H]1C(=O)N[C@@H](CCC(=O)O)C(=O)N[C@@H](CCC(=O)O)C(=O)N[C@@H](CC(C)C)C(=O)N[C@@H](CCC(N)=O)C(=O)N[C@@H](CCCNC(=N)N)C(=O)N[C@@H](Cc1ccc(O)cc1)C(=O)N[C@@H](Cc1ccc(O)cc1)C(=O)N[C@H](C(=O)N[C@@H](CCC(=O)O)C(=O)N[C@@H](CC(C)C)C(=O)N[C@@H](CCCNC(=N)N)C(=O)N[C@@H](Cc1c[nH]cn1)C(=O)N[C@@H](Cc1ccc(O)cc1)C(=O)N[C@@H](Cc1ccc(O)cc1)C(=O)N[C@@H](CC(N)=O)C(=O)N[C@@H](Cc1c[nH]c2ccccc12)C(=O)N[C@@H](CC(C)C)C(=O)N[C@H](C(=O)N[C@@H](CCCNC(=N)N)C(=O)N[C@@H](CCC(N)=O)C(=O)N[C@@H](CCCNC(=N)N)C(=O)N[C@@H](Cc1ccc(O)cc1)C(N)=O)[C@@H](C)O)C(C)C [Compound 171, N{alpha-4}-(3-methylbutanoyl)-N{epsilon-7}-(6-[(4S)-4-carboxy-4-(17-carboxyheptadecanamido)butanamido]hexanoyl)-[4A,7K,9E,10A,18Q,22V,23E,28Y,30W,31L]-hPYY(4-36)]	10.0 mg/mL	10.0 mg/mL	2.83 nM

From patent publication US12391737B2, “Soluble NPY2 receptor agonists” (Boehringer Ingelheim International GmbH, priority 2020, dated 2025)
